Measurements as given in patent publication US20050118290A1, “Compositions and method for treatment of steroid/nuclear receptor-mediated diseases” (University of Singapore, priority 2003, published 2005).

Assays:
[1] = target: T1, human estrogen receptor ERα (Homo sapiens, UniProt P03372); assay: ERα MMTV-ERE-LUC reporter gene assay in HeLa cells; assay type: cell-based
T1 construct: expressed in transfected cells; host or cells: HeLa
T1 sequence (P03372 1-595): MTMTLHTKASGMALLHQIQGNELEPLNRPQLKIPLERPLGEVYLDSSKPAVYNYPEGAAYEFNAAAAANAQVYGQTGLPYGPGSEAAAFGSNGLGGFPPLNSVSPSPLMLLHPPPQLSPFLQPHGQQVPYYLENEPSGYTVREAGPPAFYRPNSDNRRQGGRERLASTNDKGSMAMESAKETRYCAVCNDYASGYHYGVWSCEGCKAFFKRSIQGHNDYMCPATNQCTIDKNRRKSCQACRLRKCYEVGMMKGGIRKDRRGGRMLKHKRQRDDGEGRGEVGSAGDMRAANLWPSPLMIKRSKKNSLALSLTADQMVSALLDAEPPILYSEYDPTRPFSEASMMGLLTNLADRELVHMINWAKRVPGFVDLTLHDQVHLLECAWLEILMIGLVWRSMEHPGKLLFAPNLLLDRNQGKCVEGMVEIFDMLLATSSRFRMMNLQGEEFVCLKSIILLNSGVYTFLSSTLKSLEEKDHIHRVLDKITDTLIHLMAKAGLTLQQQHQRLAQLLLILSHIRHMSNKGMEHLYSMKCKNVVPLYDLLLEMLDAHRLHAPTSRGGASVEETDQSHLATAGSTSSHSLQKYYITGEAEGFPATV
Protocol: ERα and ERβ activity were assayed using plasmids encoding either ERα or ERβ co-transfected with the ERE-LUC reporter gene. To assay estrogen receptor agonist activity, HeLa cells were transiently co-transfected with two plasmids (Tcherepanova, et al., 2000) using Lipofectamine. The first plasmid comprised DNA encoding human estrogen receptor (either ERα or ERβ), and the second plasmid comprised an estrogen-driven reporter system comprising: a luciferase reporter gene (LUC) whose transcription is under the control of upstream regulatory elements comprising 4 copies of the vitellogenin estrogen response element (ERE) cloned into the Mouse Mammary Tumor Virus (MMTV) promoter (the full name of the reporter system being ‘MMTV-ERE-LUC’).
(§1) AR, PR, GR and ERα and […] were determined by comparing luciferase activity in test cells with control cells exposed to vehicle (i.e., ethanol or methanol) only, analogous to the determination of PPAR activity as described in the previous examples.

[2] = target: T2, Progesterone Receptor (Homo sapiens, UniProt P06401); assay: PR (ARE)2-Luc luciferase reporter gene assay; assay type: cell-based
T2 construct: expressed in transfected cells; host or cells: HeLa (named for the formononetin and daidzein experiments)
T2 sequence (P06401 1-933): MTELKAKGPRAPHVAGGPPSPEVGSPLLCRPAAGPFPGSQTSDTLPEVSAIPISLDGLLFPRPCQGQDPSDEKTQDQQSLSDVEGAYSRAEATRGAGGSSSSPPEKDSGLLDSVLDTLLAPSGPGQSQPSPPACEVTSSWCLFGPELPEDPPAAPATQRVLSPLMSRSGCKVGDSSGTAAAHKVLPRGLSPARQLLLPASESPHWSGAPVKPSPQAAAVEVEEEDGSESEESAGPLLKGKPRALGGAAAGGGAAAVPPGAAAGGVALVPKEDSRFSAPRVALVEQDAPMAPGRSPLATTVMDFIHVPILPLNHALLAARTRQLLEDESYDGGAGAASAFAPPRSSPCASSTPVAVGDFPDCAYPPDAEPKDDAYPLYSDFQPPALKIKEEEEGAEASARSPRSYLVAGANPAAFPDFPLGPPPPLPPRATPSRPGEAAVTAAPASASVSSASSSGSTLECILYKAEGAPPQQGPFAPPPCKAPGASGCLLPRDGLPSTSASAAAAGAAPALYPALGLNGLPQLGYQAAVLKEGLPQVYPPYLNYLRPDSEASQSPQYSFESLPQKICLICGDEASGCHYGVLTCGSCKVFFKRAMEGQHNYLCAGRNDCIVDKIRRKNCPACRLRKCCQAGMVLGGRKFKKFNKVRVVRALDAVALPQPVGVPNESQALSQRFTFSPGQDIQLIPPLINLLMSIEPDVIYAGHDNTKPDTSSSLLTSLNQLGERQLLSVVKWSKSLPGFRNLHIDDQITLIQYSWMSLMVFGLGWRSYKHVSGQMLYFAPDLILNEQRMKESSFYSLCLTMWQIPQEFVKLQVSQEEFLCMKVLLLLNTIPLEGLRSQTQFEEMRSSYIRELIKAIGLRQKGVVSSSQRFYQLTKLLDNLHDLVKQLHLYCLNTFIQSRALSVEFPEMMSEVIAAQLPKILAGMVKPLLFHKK
Protocol: The capacity of HQ extract to activate other steroid receptors, namely AR, PR, GR, ERα and ERβ was examined. […] The (ARE)2-Luc plasmid consist of two repeats of Androgen Response Element (ARE) cloned upstream of the Luciferase Reporter gene in a pGL3-Basic vector (Promega).
as §1

Row | Compound | ERα activity comparable to % maximal activity of Estradiol ([1]; 30×10^−6 g/ml) | maximal fold increase in ERα activity ([1]; 30×10^−6 g/ml) | Luciferase activity (Fold over vehicle ± SE) ERα/Estradiol (1 × 10^−9M) ([1]; calycosin 3 ×10^−6 g/mL) | Luciferase activity (Fold over vehicle ± SE) ERα/Estradiol (1 × 10^−9M) ([1]; calycosin 10 ×10^−6 g/mL) | Luciferase activity (Fold over vehicle ± SE) ERα/Estradiol (1 × 10^−9M) ([1]; calycosin 30 ×10^−6 g/mL) | increase of the activity of maximal doses of estradiol on ERα ([1]; with estradiol 1×10^−9M) | Luciferase activity (Fold over vehicle ± SE) PR/Progesterone (10 × 10^−6M) ([2]; calycosin 3 ×10^−6 g/mL) | Luciferase activity (Fold over vehicle ± SE) PR/Progesterone (10 × 10^−6M) ([2]; calycosin 10 ×10^−6 g/mL) | Luciferase activity (Fold over vehicle ± SE) PR/Progesterone (10 × 10^−6M) ([2]; calycosin 30 ×10^−6 g/mL) | increase of the activity of maximal doses of PR agonist ([2]; with progesterone 10×10^−6M) | ERα activity comparable to % maximal activity of Estradiol ([1]; 5×10^−6 g/ml) | maximal fold increase in ERα activity ([1]; 5×10^−6 g/ml) | Luciferase activity (Fold over vehicle ± SE) PR/Progesterone (10 × 10^−9M) ([2]; daidzein 5 ×10^−6 g/mL) | Luciferase activity (Fold over vehicle ± SE) PR/Progesterone (10 × 10^−9M) ([2]; daidzein 10 ×10^−6 g/mL) | Luciferase activity (Fold over vehicle ± SE) PR/Progesterone (10 × 10^−9M) ([2]; daidzein 20 ×10^−6 g/mL)
1 | COc1ccc(-c2coc3cc(O)ccc3c2=O)cc1O [calycosin, 3′,7-Dihydroxy-4′-methoxyisoflavone] | ~50% | 20 fold | 118 ± 2.18 Fold | 127 ± 6.3 Fold | 114 ± 4.18 Fold | 2.9 fold | 1077 ± 43.4 Fold | 943 ± 44.0 Fold | 837 ± 115 Fold | 1.8 fold |  |  |  |  | 
2 | O=c1c(-c2ccc(O)cc2)coc2cc(O)ccc12 [daidzein] |  |  |  |  |  |  |  |  |  |  | ~100% | 20 fold | 569 ± 84.0 Fold | 607 ± 90.6 Fold | 326 ± 65.8 Fold
